Source: patent US20240376097A1, “BCL-2 Inhibitor” (BeiGene Ltd., priority 2020, published 2024)

Experiments:
[1] = system: RS4;11 (BCL-2 dependent acute lymphoblastic leukemia cell line); assay: RS4;11 Cell Proliferation Assay; type: cell-based; details: Homo sapiens, RS4-11, RS4;11 cells, read-out: Cellular proliferation assay (IC50, nM) RS4
Outline: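 Viability measured via CellTiter-Glo luminescence after a 48 h, 37 °C exposure to compounds (10 points, highest 1 μM). Seeding was 50,000 RS4;11 cells per well in 10% FBS RPMI-1640; IC50 given as mean.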

[2] = target: Recombinant human Bcl-2 protein (Homo sapiens (Human), UniProt P10415); assay: Bcl-2 TR-FRET Assay; type: binding; details: Bcl-2 wild type, TR-FRET; read-out: Biochemical assay (IC50, nM) Bcl-2 WT
Outline: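 TR-FRET read (337 nm excitation, 520/490 nm emission) after 1 h with 0.5 nM FITC-labeled Bak peptide and Tb-cryptate anti-6His antibody. Bcl-2 at 0.05 nM had been pre-incubated 0.5 h with compound. IC50 fitted by four-parameter logistic equation.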

[3] = system: BCL-2 G101V knock-in cell line H96 (derive from RS4;11); assay: Bcl 2-G101V Knock-In RS4;11 Cell Proliferation Assay; type: cell-based; details: Homo sapiens, RS4;11 Bcl-2 G101V knock-in clone H96, 48 hrs, CellTiter-GLO, read-out: Cellular proliferation assay (IC50, nM) RS4
Description: Biological Example: Bcl 2-G101V Knock-In RS4;11 Cell Proliferation Assay
(1) RS4;11 H96 Bcl 2-G101V Knock-In Cell Line Generation
Briefly, RS4;11 BCL2-G101V knock-in cell pool was generated using Crisper/Cas9 gene editing system and the BCL2-G101V knock-in single clone H96 was picked from the knock-in cell pool and validated by WES (whole exome-sequencing) and RNA-seq.
The BCL-2 dependent acute lymphoblastic leukemia (ALL) cell line, RS4;11(ATCC, CRL-1873), was cultured in RPMI-1640 complete medium (RPMI-1640 medium, HEPES (Gibco, 22400-105) supplemented with 10% fetal bovine serum (FBS) (Gibco, 10099-1441), 100 unit/ml penicillin and 100 μg/ml streptomycin (Gibco, 15140122)) and maintained in a humidified chamber at 37° C. containing 5% CO2.
To obtain BCL2-G101V knock-in cell pool, RS4;11 was co-transfected with the Cas9-gRNA which also expressed GFP label, and the Donor gene which contained the BCL2-G101V mutant sequence. After 48 hrs of electroporation, the GFP positive cells were collected through FACSAriaIII cell sorting system. Cell pool was recovered for 3 days and then cultured under 2 nM ABT-199 stress for 4 weeks. […] Then cells were plated in 96 well U-plate with 1 cell/well for 10000 wells for single clone selection. After 3-5 weeks growing, clones were successively screened by PCR sequencing. And three BCL2-G101V knock-in clones: H96, H142 and H233, have been picked out.
Three clones were validated by genome DNA and cDNA(mRNA) PCR sequencing, and BCL-2, BCL-xL and MCL-1 expression using Western Blot. The H96 clone was also validated by WES (whole exome-sequencing) and RNA-seq.
(2) Bcl 2-G101V Knock-In RS4;11 Cell Proliferation Assay
The BCL-2 G101V knock-in cell line H96 (derive from RS4;11) were used to study the cellular potency of BCL-2 inhibitors. The cells were cultured in RPMI-1640 complete medium (RPMI-1640 medium, HEPES (Gibco, 22400-105) supplemented with 10% fetal bovine serum (FBS) (Gibco, 10099-1441), 100 unit/ml penicillin and 100 μg/ml streptomycin (Gibco, 15140122)) and maintained in a humidified chamber at 37° C. containing 5% CO2. Each compound was serially diluted with 1 μM or 10 μM as the maximum concentration. To test the apoptotic effect of the compounds, the cells were seeded at 50,000 in 90 μl per well in 96-well plates and treated with 10-point dilution series of each compound for 48 hrs at 37° C. Cell viability was assessed after the treatment using CellTiter-GLO luminescent assay (Promega) according to the manufacturer's recommendations. Briefly, 30 μl of CellTiter-GLO reagent was added into 100 μl of cell culture. Mixture was agitated on an orbital shaker for 5 min to ensure cell lysis followed by 7 min incubation at room temperature to allow development and stabilization of luminescent signals, which corresponded to the quantity of ATP and thus the quantity of metabolically active cells. Luminescent signals were measured using PHERAstar FS reader (BMG). Mean IC50 values were determined with GraphPad Prism software.

[4] = target: recombinant human Bcl-2-G101V protein (Homo sapiens (Human), UniProt P10415, G101V); assay: Bcl-2-G101V TR-FRET Assay; type: binding; details: Bcl-2 G101V mutant, TR-FRET; read-out: Biochemical assay (IC50, nM) Bcl-2 G101V
Outline: (§1)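 TR-FRET read at excitation 337 nm with emission at 490 nm and 520 nm. Inhibition of Bcl-2-G101V binding to its ligand across increasing compound concentrations was calculated from the 490/520 nm fluorescence ratio, and IC50 values came from four-parameter logistic fits.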

[5] = system: recombinant human Bcl-2-G101V protein; assay: Bcl-2-G101V TR-FRET Assay; type: binding; details: ratio of biochemical IC50 Bcl-2 G101V / Bcl-2 WT
Outline: as §1

| SMILES | IC50 [1] | IC50 [2] | IC50 [3] | IC50 [4] | Ratio of Bcl-2 G101V/WT [5] |
| --- | --- | --- | --- | --- | --- |
| COc1cc(CN2CCN(C3CC4(CCN(c5ccc(C(=O)NS(=O)(=O)c6ccc(NC[C@H]7CC[C@](C)(O)CC7)c([N+](=O)[O-])c6)c(Oc6cnc7[nH]cc(F)c7c6)c5)CC4)C3)C(c3ccccc3C(C)C)C2)ccc1C1CC1 (stereo partly drawn) [Example 161, 4-(2-(4-(4-cyclopropyl-3-methoxybenzyl)-2-(2-isopropylphenyl)piperazin-1-yl)-7-azaspiro[3.5]nonan-7-yl)-2-((3-fluoro-1H-pyrrolo[2,3-b]pyridin-5-yl)oxy)-N-((4-((((1r,4r)-4-hydroxy-4-methylcyclohexyl)methyl)amino)-3-nitrophenyl)sulfonyl) benzamide] | 0.46 nM | 0.42 nM | 1.22 nM | 3.9 nM | 6.8 |
| CC(C)c1ccccc1C1CN(Cc2cccc3c2N(C)C(=O)CO3)CCN1C1CC2(CCN(c3ccc(C(=O)NS(=O)(=O)c4ccc(NC[C@H]5CC[C@](C)(O)CC5)c([N+](=O)[O-])c4)c(Oc4cnc5[nH]ccc5c4)c3)CC2)C1 (stereo partly drawn) [Example 216, 2-((1H-pyrrolo[2,3-b]pyridin-5-yl)oxy)-N-((4-((((1r,4r)-4-hydroxy-4-methylcyclohexyl)methyl)amino)-3-nitrophenyl)sulfonyl)-4-(2-(2-(2-isopropylphenyl)-4-((4-methyl-3-oxo-3,4-dihydro-2H-benzo[b] [1,4]oxazin-5-yl)methyl)piperazin-1-yl)-7-azaspiro[3.5]nonan-7-yl) benzamide] | 0.33 nM | 0.19 nM | 2.76 nM | 0.81 nM | 4.2 |
| CC(C)c1ccccc1[C@@H]1CN(Cc2cccc3c2OCC(C)(C)O3)CCN1C1CC2(C1)CN(c1ccc(C(=O)NS(=O)(=O)c3ccc(NC[C@H]4CC[C@](C)(O)CC4)c([N+](=O)[O-])c3)c(Oc3cnc4[nH]cc(F)c4c3)c1)C2 [Example 315, 4-(6-((R)-4-((2,2-dimethyl-2,3-dihydrobenzo[b][1,4]dioxin-5-yl)methyl)-2-(2-isopropylphenyl)piperazin-1-yl)-2-azaspiro[3.3]heptan-2-yl)-2-((3-fluoro-1H-pyrrolo[2,3-b]pyridin-5-yl)oxy)-N-((4-((((1r,4r)-4-hydroxy-4-methylcyclohexyl)methyl)amino)-3-nitrophenyl)sulfonyl)benzamide] | 0.18 nM | 0.31 nM | 0.86 nM | 0.99 nM | 3.2 |
| CC(C)c1ccccc1C1CN(C2CCCCC2)CCN1C1CC2(CCN(c3ccc(C(=O)NS(=O)(=O)c4ccc(NC[C@H]5CC[C@](C)(O)CC5)c([N+](=O)[O-])c4)c(Oc4cnc5[nH]ccc5c4)c3)CC2)C1 (stereo partly drawn) [Example 9] | 0.51 nM | 0.034 nM | 4.37 nM | 0.52 nM | 15.3 |
| COc1ccc(CN2CCN(C3CC4(CCN(c5ccc(C(=O)NS(=O)(=O)c6ccc(NCC7CCOCC7)c([N+](=O)[O-])c6)c(Oc6cnc7[nH]cc(F)c7c6)c5)CC4)C3)[C@H](c3ccccc3C(C)C)C2)cc1OC [Example 191, (R)-4-(2-(4-(3,4-dimethoxybenzyl)-2-(2-isopropylphenyl)piperazin-1-yl)-7-azaspiro[3.5]nonan-7-yl)-2-((3-fluoro-1H-pyrolo[2,3-b]pyridin-5-yl)oxy)-N-((3-nitro-4-(((tetrahydro-2H-pyran-4-yl)methyl)amino)phenyl)sulfonyl) benzamide] | 0.15 nM | 0.061 nM | 0.52 nM | 0.2 nM | 3.3 |
| CC(C)c1ccccc1C1CN(C(=O)c2ccccc2)CCN1C1CC2(CCN(c3ccc(C(=O)NS(=O)(=O)c4ccc(NC[C@H]5CC[C@](C)(O)CC5)c([N+](=O)[O-])c4)c(Oc4cnc5[nH]ccc5c4)c3)CC2)C1 (stereo partly drawn) [Example 60] | 0.35 nM | 0.057 nM | 2.52 nM | 1.6 nM | 28.1 |
| CCc1ccc(CN2CCN(C3CC4(C3)CN(c3ccc(C(=O)NS(=O)(=O)c5ccc(NC[C@H]6CC[C@](C)(O)CC6)c([N+](=O)[O-])c5)c(Oc5cnc6[nH]ccc6c5)c3)C4)[C@H](c3ccccc3C(C)C)C2)cc1OC [Example 271, 2-((1H-pyrrolo[2,3-b]pyridin-5-yl)oxy)-4-(6-((R)-4-(4-ethyl-3-methoxybenzyl)-2-(2-isopropylphenyl)piperazin-1-yl)-2-azaspiro[3.3]heptan-2-yl)-N-((4-((((1r,4r)-4-hydroxy-4-methylcyclohexyl)methyl)amino)-3-nitrophenyl)sulfonyl)benzamide] | 0.11 nM | 0.47 nM | 0.4 nM | 1.5 nM | 3.1 |
| COc1ccc(CN2CCN(C3CC4(CCN(c5ccc(C(=O)NS(=O)(=O)c6ccc(NC[C@H]7CC[C@](C)(O)CC7)c([N+](=O)[O-])c6)c(Oc6cnc7[nH]ccc7c6)c5)CC4)C3)C(c3ccccc3C(C)C)C2)cc1OC(F)(F)F (stereo partly drawn) [Example 163, 2-((1H-pyrrolo[2,3-b]pyridin-5-yl)oxy)-N-((4-((((1r,4r)-4-hydroxy-4-methylcyclohexyl)methyl)amino)-3-nitrophenyl)sulfonyl)-4-(2-(2-(2-isopropylphenyl)-4-(4-methoxy-3-(trifluoromethoxy)benzyl)piperazin-1-yl)-7-azaspiro[3.5]nonan-7-yl)benzamide] | 1.08 nM | 1.3 nM | 9.2 nM | 5.5 nM | 4.3 |
| CC(C)c1ccccc1[C@@H]1CN(Cc2ccc3c(c2)OCC3)CCN1C1CC2(C1)CN(c1ccc(C(=O)NS(=O)(=O)c3ccc(NC[C@H]4CC[C@](C)(O)CC4)c([N+](=O)[O-])c3)c(Oc3cnc4[nH]ccc4c3)c1)C2 [Example 298, 2-((1H-pyrrolo[2,3-b]pyridin-5-yl)oxy)-4-(6-((R)-4-((2,3-dihydrobenzofuran-6-yl)methyl)-2-(2-isopropylphenyl)piperazin-1-yl)-2-azaspiro[3.3]heptan-2-yl)-N-((4-((((1r,4r)-4-hydroxy-4-methylcyclohexyl)methyl)amino)-3-nitrophenyl)sulfonyl)benzamide] | 0.24 nM | 0.099 nM | 1.82 nM | 0.45 nM | 4.6 |
